Measurements from paper PMC10140934, “In Vitro and In Silico Studies on Angiotensin I-Converting Enzyme Inhibitory Peptides Found in Hydrophobic Domains of Porcine Elastin” (Molecules, 2023).
Residues, ends and D or L forms follow the SMILES beside them. No end group written: not given here.

These molecules were tested against T1, ACE (from rabbit lung) (Oryctolagus cuniculus, UniProt P12822) (assay: Assay of ACE inhibitory activity (HHL substrate, o-phthalaldehyde fluorescence)). Conditions: pH 8.3, 37 °C, n = 3.
T1 construct: ACE (20 mU/mL, from rabbit lung) was used for the enzyme solution; from tissue; host or cells: rabbit lung
T1 sequence (P12822 34-1310): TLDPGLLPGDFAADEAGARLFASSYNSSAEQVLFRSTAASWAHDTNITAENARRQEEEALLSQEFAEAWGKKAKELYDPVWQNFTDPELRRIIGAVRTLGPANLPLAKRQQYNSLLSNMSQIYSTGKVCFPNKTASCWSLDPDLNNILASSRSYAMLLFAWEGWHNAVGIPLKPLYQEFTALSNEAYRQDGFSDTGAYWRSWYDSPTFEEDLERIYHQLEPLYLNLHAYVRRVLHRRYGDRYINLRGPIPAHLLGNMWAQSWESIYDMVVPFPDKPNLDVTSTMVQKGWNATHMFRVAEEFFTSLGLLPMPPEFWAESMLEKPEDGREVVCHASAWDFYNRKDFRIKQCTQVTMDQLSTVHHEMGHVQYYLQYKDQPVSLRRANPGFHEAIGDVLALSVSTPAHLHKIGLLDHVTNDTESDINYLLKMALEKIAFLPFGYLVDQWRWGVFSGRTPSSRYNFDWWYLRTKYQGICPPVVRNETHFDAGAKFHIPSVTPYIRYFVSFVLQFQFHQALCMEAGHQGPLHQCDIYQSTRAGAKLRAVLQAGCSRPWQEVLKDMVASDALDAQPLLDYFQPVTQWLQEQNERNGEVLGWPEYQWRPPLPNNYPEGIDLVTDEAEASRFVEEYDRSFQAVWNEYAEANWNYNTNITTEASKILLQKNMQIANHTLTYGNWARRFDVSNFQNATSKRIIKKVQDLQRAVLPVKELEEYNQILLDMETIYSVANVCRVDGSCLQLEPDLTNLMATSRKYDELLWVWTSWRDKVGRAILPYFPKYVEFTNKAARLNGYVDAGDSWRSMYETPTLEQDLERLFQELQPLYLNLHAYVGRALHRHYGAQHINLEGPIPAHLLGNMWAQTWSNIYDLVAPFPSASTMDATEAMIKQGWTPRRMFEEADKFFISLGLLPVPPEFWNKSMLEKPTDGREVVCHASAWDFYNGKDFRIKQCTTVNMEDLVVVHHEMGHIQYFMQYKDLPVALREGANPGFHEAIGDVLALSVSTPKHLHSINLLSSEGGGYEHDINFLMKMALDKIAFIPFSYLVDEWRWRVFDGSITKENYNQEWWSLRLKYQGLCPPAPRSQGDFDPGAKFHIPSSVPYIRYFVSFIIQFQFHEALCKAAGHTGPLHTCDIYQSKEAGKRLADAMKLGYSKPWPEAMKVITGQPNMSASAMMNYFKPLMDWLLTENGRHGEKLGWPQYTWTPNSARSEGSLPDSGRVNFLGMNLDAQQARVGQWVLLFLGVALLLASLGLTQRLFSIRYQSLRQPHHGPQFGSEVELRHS
Format: biochemical
Method: The ACE inhibitory activity of newly synthesized peptides was measured under the following condition by using Nakano et al.’s method. ACE (20 mU/mL, from rabbit lung) was used for the enzyme solution and 100 mM hippuryl-histidyl-leucine (HHL) was used for the substrate solution. Each solution was prepared in 0.1 M HEPES buffer (pH 8.3, 0.3 M NaCl, 0.01% Triton-X). Both enzyme solution (25 μL) and sample solution (20 μL) were preincubated at 37 °C for 5 min. A total of 100 mM HHL substrate solution (25 μL) was added and incubated at 37 °C for 30 min. The reaction was stopped by the addition of 100 mM NaOH solution (25 μL), followed by the addition of 1% o-phthalaldehyde in methanol (25 μL) and maintained at room temperature for 20 min. Next, 100 mM HCl (25 μL) was added and further maintained at room temperature for 10 min. The amount of His-Leu cleaved from the substrate by ACE was determined by measuring the fluorescence intensity of the product reacted with o-phthalaldehyde (excitation wavelength 370 nm, emission wavelength 460 nm) in a microplate reader. ACE inhibitory activity was calculated by the following formula:a ACE inhibitory activity (%) = [1 − (a − c)/(b − d)] × 100(1) where a is the fluorescence intensity in the presence of both ACE and the inhibitor, b is the fluorescence intensity in the presence of ACE without the inhibitor, c is the fluorescence intensity in the presence of the inhibitor without ACE, and d is the fluorescence intensity in the absence of both ACE and the inhibitor. ACE inhibitory activity was expressed by IC50 value: the concentration of inhibition required to inhibit 50% of the ACE activity, and each IC50 value was measured three times.

Row | IC50 [µM] | Molecule
1 | 230 | C[C@H](N)C(=O)N1CCC[C@H]1C(=O)O [AP] (H-Ala-Pro-OH)
2 | 369 | CC(C)[C@H](NC(=O)CN)C(=O)NCC(=O)O [GVG] (H-Gly-Val-Gly-OH)
3 | 1 | CC(C)[C@H](N)C(=O)N[C@@H](C)C(=O)N1CCC[C@H]1C(=O)O [VAP] (H-Val-Ala-Pro-OH)
4 | 1.3 | C[C@@H](O)[C@H](N)C(=O)N[C@@H](CCCNC(=N)N)C(=O)N1CCC[C@H]1C(=O)O [TRP] (H-Thr-Arg-Pro-OH)
5 | 485 | CC(C)C[C@H](NC(=O)CN)C(=O)NCC(=O)O [GLG] (H-Gly-Leu-Gly-OH)
6 | 10.4 | CC(C)[C@H](N)C(=O)N[C@@H](CO)C(=O)N1CCC[C@H]1C(=O)O [VSP] (H-Val-Ser-Pro-OH)
7 | 35 | C[C@H](NC(=O)CN)C(=O)N1CCC[C@H]1C(=O)O [GAP] (H-Gly-Ala-Pro-OH)
8 | 906 | VAPGVG [VAPGVG]
9 | 326 | CC(C)[C@H](N)C(=O)N[C@@H](C)C(=O)O [VA] (H-Val-Ala-OH)
